How the values were obtained:
Experiment in all cases: NCI 60 cell panel SRB screen
[1] = system: CCRF-CEM; format: cell-based, human
[2] = system: HL-60(TB); format: cell-based; conditions: Homo sapiens
[3] = system: RPMI-8226; format: cell-based; conditions: Homo sapiens
[4] = system: SR; format: cell-based; conditions: Homo sapiens
[5] = system: HOP-62; format: cell-based; conditions: Homo sapiens
[6] = system: NCI-H23; format: cell-based; conditions: Homo sapiens
[7] = system: NCI-H460; format: cell-based; conditions: Homo sapiens
[8] = system: HCT-116; format: cell-based; conditions: Homo sapiens
[9] = system: KM12; format: cell-based; conditions: Homo sapiens
[10] = system: SW-620; format: cell-based; conditions: Homo sapiens
[11] = system: U251; format: cell-based; conditions: Homo sapiens, U-251
[12] = system: MALME-3M; format: cell-based; conditions: Homo sapiens
[13] = system: SK-MEL-28; format: cell-based; conditions: Homo sapiens
[14] = 5 log dose, 48 h, read-out: LC50 (the source's name)
[15] = single dose 10 μM, read-out: percent cell growth promotion

O=C(Nc1ccc(Cl)cc1)Nc1ccc(Nc2nncc3ccccc23)cc1 [Compound 6b, 1–(4-Chlorophenyl)-3–(4-(phthalazin-1-ylamino)phenyl)urea]
TGI ([1]; 5 log dose): 17.0 µM | GI50 ([1]; Homo sapiens, 5 log dose): 2.57 µM | CC50 ([1]; Homo sapiens, 5 log dose, 48 h, read-out: LC50 (the source's name)): > 100 µM | activity at 10 µM ([1]; Homo sapiens, single dose 10 μM, read-out: percent cell growth promotion): 13.1% | GI50 ([2]; 5 log dose): 2.42 µM | IC (TGI) ([2]; 5 log dose): 7 µM | CC50 [2, 14]: > 100 µM | activity at 10 µM [2, 15]: 18.1% | GI50 ([3]; RPMI-8226, 5 log dose): 2.5 µM | IC (TGI) ([3]; RPMI-8226, 5 log dose): 8.75 µM | CC50 ([3]; RPMI-8226, 5 log dose, 48 h, read-out: LC50 (the source's name)): > 100 µM | activity at 10 µM ([3]; RPMI-8226, single dose 10 μM, read-out: percent cell growth promotion): 8.62% | GI50 ([4]; 5 log dose): 3.89 µM | IC (TGI) ([4]; 5 log dose): 23.3 µM | CC50 [4, 14]: > 100 µM | activity at 10 µM [4, 15]: 17.5% | GI50 ([5]; HOP-62, 5 log dose): 3 µM | IC (TGI) ([5]; HOP-62, 5 log dose): 14.9 µM | CC50 ([5]; HOP-62, 5 log dose, 48 h, read-out: LC50 (the source's name)): 74.9 µM | activity at 10 µM ([5]; HOP-62, single dose 10 μM, read-out: percent cell growth promotion): 20.6% | GI50 ([6]; NCI-H23, 5 log dose): 3.07 µM | IC (TGI) ([6]; NCI-H23, 5 log dose): 14.4 µM | CC50 ([6]; NCI-H23, 5 log dose, 48 h, read-out: LC50 (the source's name)): 71.8 µM | activity at 10 µM ([6]; NCI-H23, single dose 10 μM, read-out: percent cell growth promotion): 12.5% | GI50 ([7]; NCI-H460, 5 log dose): 2.91 µM | IC (TGI) ([7]; NCI-H460, 5 log dose): 11.9 µM | LC50 (concentration causing 50% cell kill) ([7]; NCI-H460, 5 log dose, 48 h): 56.8 µM | activity at 10 µM ([7]; NCI-H460, single dose 10 μM, read-out: percent cell growth promotion): 9.89% | GI50 ([8]; HCT-116, 5 log dose): 2.46 µM | IC (TGI) ([8]; HCT-116, 5 log dose): 12 µM | LC50 (lethal concentration 50%) ([8]; HCT-116, 5 log dose, 48 h): 37.4 µM | activity at 10 µM ([8]; HCT-116, single dose 10 μM, read-out: percent cell growth promotion): 15.2% | GI50 ([9]; KM12, 5 log dose): 1.47 µM | IC (TGI) ([9]; KM12, 5 log dose): 11.4 µM | CC50 ([9]; KM12, 5 log dose, 48 h, read-out: LC50 (the source's name)): 45 µM | activity at 10 µM ([9]; KM12, single dose 10 μM, read-out: percent cell growth promotion): 18.9% | GI50 ([10]; SW-620, 5 log dose): 3.16 µM | IC (TGI) ([10]; SW-620, 5 log dose): 18.6 µM | CC50 ([10]; SW-620, 5 log dose, 48 h, read-out: LC50 (the source's name)): 81.8 µM | activity at 10 µM ([10]; SW-620, single dose 10 μM, read-out: percent cell growth promotion): 27% | GI50 ([11]; U251, 5 log dose): 2.86 µM | IC (TGI) ([11]; U251, 5 log dose): 10.3 µM | CC50 ([11]; U251, 5 log dose, 48 h, read-out: LC50 (the source's name)): 37.2 µM | activity at 10 µM ([11]; U251, single dose 10 μM, read-out: percent cell growth promotion): 18.3% | GI50 ([12]; Malme-3M): 3.94 µM | IC (TGI) ([12]; Malme-3M, read-out: TGI): 16.5 µM | activity at 10 µM ([12]; Malme-3M, read-out: percent cell growth promotion): 38.5% | CC50 ([12]; MALME-3M, 5 log dose, 48 h, read-out: LC50 (the source's name)): 50 µM | GI50 ([13]; SK-MEL-28): 3.04 µM | IC (TGI) ([13]; SK-MEL-28, read-out: TGI): 12.8 µM
